Data: PubChem BioAssay (NCI)
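Each compound was tested at five concentrations against cells in 96-well plates for 48 hours. TGI is the concentration that stops growth completely.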

Legend:
Test in all cases: growth of human tumour cells (NCI), 48 h
HS 578T breast = tested on: HS 578T breast
UO-31 renal = tested on: UO-31 renal
DMS 273 small cell lung = tested on: DMS 273 small cell lung
M19-MEL melanoma = tested on: M19-MEL melanoma
SNB-78 CNS = tested on: SNB-78 CNS
LXFL 529 NSCLC = tested on: LXFL 529 NSCLC
DMS 114 small cell lung = tested on: DMS 114 small cell lung
XF 498 CNS = tested on: XF 498 CNS
KM20L2 colon = tested on: KM20L2 colon
DLD-1 colon = tested on: DLD-1 colon
RXF-631 renal = tested on: RXF-631 renal

Compound	TGI (HS 578T breast) [µM]	TGI (UO-31 renal) [µM]	also measured
O=C1NC(N2CCCC(CO)C2)=N/C1=C\c1ccc(O)cc1 (configuration not stated)	> 100	> 100	
O=C1c2c(ccc3c2CCCC3)CC12Cc1ccccc1C2	> 100	68.5	
O=C1CSC(c2ccc(Cl)cc2)N1c1ccc(-n2c(-c3ccccc3)nc3ccccc3c2=O)cc1 (configuration not stated)	> 100	> 100	
Cc1c2cccc-2c(N(C)C)cc2c1[nH]c1ccccc12	13.8	7.93	
CC1CCCC2(O1)OC1CC(=O)OC1C1=C2C(=O)c2ccccc2C1=O (configuration not stated)		5.41	TGI (DMS 273 small cell lung): 3.82 µM; TGI (M19-MEL melanoma): 7.36 µM; TGI (SNB-78 CNS): 4.85 µM; TGI (LXFL 529 NSCLC): 2.76 µM; TGI (DMS 114 small cell lung): 3.35 µM; TGI (XF 498 CNS): 8.42 µM; TGI (KM20L2 colon): 16 µM
O=C1N[C@@H](c2c[nH]c3ccc(Br)cc23)C(=O)N[C@H]1c1c[nH]c2ccc(Br)cc12	34.3	45	
C=CCn1c(=O)c(-c2ccccc2)c(O)c2ccccc21	> 100	> 100	
Clc1ccc(CCN2CCN(CCCc3ccccc3)CC2)cc1Cl	44.9	24.7	
N#C/C(=C/NC(=S)Nc1ccc(S(N)(=O)=O)cc1)C(N)=O	> 100		
CC(C)(C)C(=O)Cc1cc2c(cc1C(=O)O)S(=O)(=O)NC(C(C)(C)C)=C2		> 100	TGI (M19-MEL melanoma): > 100 µM; TGI (SNB-78 CNS): > 100 µM; TGI (LXFL 529 NSCLC): > 100 µM; TGI (DLD-1 colon): > 100 µM; TGI (DMS 114 small cell lung): > 100 µM
CCCCCCc1cc2cc(C(=O)Nc3cccc(C(F)(F)F)c3)c(=N)oc2cc1O	9.99	> 29.2	
COC(=O)c1cc(CNCCc2c[nH]c3ccccc23)on1	> 100	> 100	TGI (DMS 273 small cell lung): > 100 µM; TGI (M19-MEL melanoma): > 100 µM; TGI (RXF-631 renal): > 100 µM; TGI (LXFL 529 NSCLC): > 100 µM; TGI (DLD-1 colon): > 100 µM; TGI (DMS 114 small cell lung): > 100 µM; TGI (XF 498 CNS): 67.4 µM; TGI (KM20L2 colon): > 100 µM
COc1c(-c2ccc3c(c2)OCO3)oc2cc3c(c(OC)c2c1=O)OCO3	93.9	71	
CC(C)(C)C(=O)C(C#N)C(=O)C(C)(C)C	> 100	> 100	
O=C(C(=O)n1ccc2ccccc21)c1c[nH]c2ccccc12	> 10	> 10	
Clc1ccc(CCn2ccc3ccccc32)c(Cl)c1	> 100	> 100	
CCCCCCCCCCCCCCCCCc1nc(C#N)c(N)o1	85.4		
O=S(=O)(N1CCCCN(S(=O)(=O)C(F)(F)F)CCCN(S(=O)(=O)C(F)(F)F)CCCN(S(=O)(=O)C(F)(F)F)CCCCN(S(=O)(=O)C(F)(F)F)CCCN(S(=O)(=O)C(F)(F)F)CCC1)C(F)(F)F	92.4	> 100	
CC(C)(C)OC(=O)N1CC(COS(C)(=O)=O)c2ccc(O)cc21 (configuration not stated)	5.75	5.26	
O=C(c1ccccc1)c1cc(-c2ccccc2)c(-c2ccccc2)[nH]c(=O)c1=O	> 100	> 100	
CCC1(CC)C(=O)N(C(=O)c2ccc(Cl)cc2)N(C(=O)c2ccccc2Cl)C1=O	> 100	> 100	
COC(=O)C(I(OS(=O)(=O)c1ccc(C)cc1)c1ccccc1)=P(c1ccccc1)(c1ccccc1)c1ccccc1	85.1	54.8	
COc1ccc(N=Nc2ccc3oc(=O)c(C(=O)Nc4ccc(OC)cc4)cc3c2)cc1	89.9	62.4	
